Measured values reported in patent US7763585B2, “Methods for inhibiting tumor cell proliferation” (priority 2003, dated 2010).
Read-outs that look alike come from different tables or passages of the source.

Key:
[1] = molecular target: T1, Stat3:Stat3 (Mus musculus, UniProt P42227); assay: EMSA, disruption of Stat3:Stat3 DNA-binding activity in vitro (hSIE probe); type: biochemical; settings: for Level of DNA-binding activity of Stat3 (EMSA): EGF-stimulated fibroblast nuclear extracts, 30 min preincubation, FIG. 1A; for IC50: nuclear extracts pre-incubated 30 min at room temperature, read-out: IC50 for disruption of STAT DNA-binding activity in vitro, Stat3:Stat3
T1 construct: endogenous in cells; host or cells: EGF-stimulated fibroblasts (nuclear extract)
Method: (§1) FIGS. 1A-D are photographs showing EMSA analyses of DNA-binding activities and effects of platinum complexes. Nuclear extracts containing activated Stat1, Stat3 and Stat5 are treated with the indicated concentrations of platinum complex ISSCPA-1, ISSCPA-3, ISSCPA-7, or PtCl4 for 30 min at room temperature prior to incubation with radiolabeled oligonucleotide probes. […] Positions of complexes of DNA with STAT, E2F1 or NFκB (p65, p50) in gel are labeled. Control lanes represent nuclear extracts that are not pre-incubated with platinum complexes.
(§2) Nuclear extracts were prepared from cell lines and used for EMSA as previously described (Turkson et al., 1998; Yu et al., 1995; Garcia et al., 1997). In some cases, cells were pre-treated with platinum complexes for the indicated times prior to harvesting. Where cells were stimulated with EGF (6 ng/ml), duration of treatment was 15 min. Nuclear extracts were pre-incubated with compounds for 30 min at room temperature prior to incubation with radiolabeled probe. The ^32P-radiolabeled oligonucleotide probes used are hSIE (high affinity sis-inducible element, m67 variant, 5′-[…]-3′) (SEQ ID NO:1) that binds both Stat1 and Stat3 (Garcia et al., 1997; Wagner et al., 1990), MGFe (mammary gland factor element from the bovine β-casein gene promoter, 5′-AGATTTCTAGGAATTCAA-3′) (SEQ ID NO:2) that binds Stat1 and Stat5 (Gouilleux et al., 1995; Seidel et al., 1995), the NF-κB binding oligo (5′-[…]-3′) (SEQ ID NO:3), and the oligonucleotide sequence from the DHFR promoter that binds E2F1.
(§3) Platinum compounds were evaluated for inhibitory activity against STAT DNA-binding in vitro.

[2] = molecular target: T2, Stat1:Stat3 (Mus musculus, UniProt P42225+P42227); assay: EMSA, disruption of Stat1:Stat3 DNA-binding activity in vitro (hSIE probe); type: biochemical
T2 construct: endogenous in cells; host or cells: EGF-stimulated fibroblasts (nuclear extract)
Method: as §1, §2, §3

[3] = molecular target: T3, Stat1:Stat1 (Mus musculus, UniProt P42225); assay: EMSA, disruption of Stat1:Stat1 DNA-binding activity in vitro (hSIE probe); type: biochemical; settings: for Level of DNA-binding activity of Stat1 (EMSA): EGF-stimulated fibroblast nuclear extracts, 30 min preincubation, FIG. 1A
T3 construct: endogenous in cells; host or cells: EGF-stimulated fibroblasts (nuclear extract)
T3 sequence (P42225 2-749 limits assumed): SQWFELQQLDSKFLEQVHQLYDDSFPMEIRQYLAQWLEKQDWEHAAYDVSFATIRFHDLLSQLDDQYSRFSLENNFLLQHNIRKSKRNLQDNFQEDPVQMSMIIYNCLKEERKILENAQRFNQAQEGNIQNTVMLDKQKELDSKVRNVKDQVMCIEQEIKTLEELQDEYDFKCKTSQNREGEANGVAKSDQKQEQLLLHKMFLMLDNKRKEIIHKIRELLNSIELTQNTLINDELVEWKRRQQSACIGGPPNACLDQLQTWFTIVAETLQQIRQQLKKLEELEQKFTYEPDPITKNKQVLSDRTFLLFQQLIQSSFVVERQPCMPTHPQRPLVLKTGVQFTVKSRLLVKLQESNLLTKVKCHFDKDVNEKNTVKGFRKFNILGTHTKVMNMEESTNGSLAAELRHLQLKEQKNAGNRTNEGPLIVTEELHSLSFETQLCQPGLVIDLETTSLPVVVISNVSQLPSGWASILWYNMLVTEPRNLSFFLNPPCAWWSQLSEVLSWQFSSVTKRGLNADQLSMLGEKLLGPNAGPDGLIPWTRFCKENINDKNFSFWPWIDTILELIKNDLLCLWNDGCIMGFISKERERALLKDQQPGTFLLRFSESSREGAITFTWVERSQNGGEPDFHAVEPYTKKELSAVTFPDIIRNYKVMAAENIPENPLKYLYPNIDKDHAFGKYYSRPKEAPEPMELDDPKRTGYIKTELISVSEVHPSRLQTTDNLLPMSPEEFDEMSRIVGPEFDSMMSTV
Method: as §1, §2, §3

[4] = tested on: Stat5; assay: EMSA, Stat5 DNA-binding activity in vitro (MGFe probe); type: biochemical, mouse; settings: FIG. 1B
Method: as §1, §2, §3

[5] = tested on: Stat3; assay: EMSA of nuclear extracts from treated cells with constitutively-activated Stat3; type: cell-based, mouse and human; settings: Src-transformed fibroblasts and human tumor cells, FIG. 3
Method: FIG. 3 is a photograph showing the evaluation of effects of platinum complexes on Stat3 activation analyzed by EMSA. Nuclear extracts prepared from malignant cells that contain constitutively-activated Stat3 and treated with platinum complexes for the indicated times were analyzed by EMSA using hSIE oligonucleotide probe. Extracts were prepared from v-Src-transformed NIH3T3/v-Src; human breast carcinoma MDA-MB-231; MDA-MB-435; and […]. Position of Stat3:DNA complex in gel is shown.
as §2, with “5′-[…]-3′)” for “5′-AGATTTCTAGGAATTCAA-3′)”
The effects of platinum complexes on persistent activation of Stat3 in Src-transformed fibroblasts and human tumor cells were investigated. […] These studies were then extended to evaluate the effects of the platinum complexes on Stat3 transcriptional activity.

[6] = tested on: NIH3T3v-Src; assay: Cell proliferation of v-Src-transformed fibroblasts; type: cell-based, mouse; settings: FIG. 6
Method: (§4) FIGS. 6A and 6B show the effects of platinum complexes on cell proliferation and viability. […] Values are the mean and S.D. of 3-4 independent determinations.
Proliferating cells were counted by phase-contrast microscopy for viable cells (using trypan blue exclusion. TUNEL staining was carried according to supplier's instructions to detect apoptotic cells. Cells (NIH3T3 or NIH3T3/v-Src) were first treated with or without compounds 24-48 h prior to staining.
(§5) The effects of platinum complexes on cell proliferation measured by [^3H]-thymidine incorporation were investigated.

[7] = tested on: human breast and non-small cell lung cancer cell lines; assay: Cell proliferation ([3H]-thymidine incorporation) of human breast and non-small cell lung cancer cell lines; type: cell-based; settings: FIG. 6
Description: as §4, §5

[8] = tested on: human tumor cells that do not contain constitutively-active Stat3; assay: Cell proliferation ([3H]-thymidine incorporation) of human tumor cells without constitutively-active Stat3; type: cell-based; settings: FIG. 6; reduction in growth rate but not growth inhibitory
Description: as §4, §5

T1 sequence (P42227 2-770 limits assumed): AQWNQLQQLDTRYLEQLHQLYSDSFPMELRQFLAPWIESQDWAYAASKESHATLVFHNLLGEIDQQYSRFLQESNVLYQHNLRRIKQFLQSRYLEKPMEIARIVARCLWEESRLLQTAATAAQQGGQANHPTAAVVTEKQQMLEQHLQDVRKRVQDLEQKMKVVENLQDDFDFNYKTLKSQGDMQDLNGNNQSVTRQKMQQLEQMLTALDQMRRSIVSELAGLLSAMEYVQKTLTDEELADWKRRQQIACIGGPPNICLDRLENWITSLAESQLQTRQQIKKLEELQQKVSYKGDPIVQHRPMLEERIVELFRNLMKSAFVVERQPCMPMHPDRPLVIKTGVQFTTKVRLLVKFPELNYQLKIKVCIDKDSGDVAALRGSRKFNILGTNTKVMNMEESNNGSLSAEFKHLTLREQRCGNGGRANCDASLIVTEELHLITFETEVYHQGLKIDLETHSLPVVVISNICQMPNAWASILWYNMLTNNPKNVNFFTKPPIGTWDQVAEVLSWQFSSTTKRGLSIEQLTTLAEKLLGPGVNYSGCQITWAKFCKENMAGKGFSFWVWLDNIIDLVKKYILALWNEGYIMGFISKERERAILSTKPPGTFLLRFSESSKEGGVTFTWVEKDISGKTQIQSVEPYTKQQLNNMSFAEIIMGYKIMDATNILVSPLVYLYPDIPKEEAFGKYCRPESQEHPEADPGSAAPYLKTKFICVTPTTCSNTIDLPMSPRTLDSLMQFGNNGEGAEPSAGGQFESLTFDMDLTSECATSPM
T2 sequence (P42227 2-770 limits assumed, one chain of several): as the sequence (P42227 2-770 limits assumed) above

SMILES | Level of DNA-binding activity of Stat3 (EMSA) [1] | IC50 [1] | IC50 ([2]; nuclear extracts pre-incubated 30 min at room temperature, hSIE probe, read-out: IC50 for disruption of STAT DNA-binding activity in vitro, Stat1:Stat3) | Level of DNA-binding activity of Stat1 (EMSA) ([3]; hSIE probe) | IC50 ([3]; nuclear extracts pre-incubated 30 min at room temperature, hSIE probe, read-out: IC50 for disruption of STAT DNA-binding activity in vitro, Stat1:Stat1) | Inhibitory effect on Stat5 DNA-binding activity (EMSA) [4] | Inhibition of constitutive Stat3 activation in treated cells (EMSA of nuclear extracts) [5] | Growth of Src-transformed mouse fibroblasts ([3H]-thymidine incorporation) [6] | Growth of human breast and non-small cell lung cancer cell lines ([3H]-thymidine incorporation) [7] | Growth of human tumor cells that do not contain constitutively-active Stat3 [8] | IC50 [2] | IC50 [3]
[NH2][Pt]([NH2])([Cl])([Cl])([Cl])[N+](=O)[O-] [ISS CPA-7] | dose-dependent reduction | 1.5 µM | 3.5 µM | dose-dependent reduction | 4 µM | much reduced inhibitory effect | strong inhibition | strongly inhibited | strongly inhibited | marginal effect | – | –
O=[N+]([O-])[Pt]1([Cl])([Cl])([Cl])[NH]CC[NH]1 [ISS CPA-1] | dose-dependent reduction | 5 µM | – | dose-dependent reduction | – | much reduced inhibitory effect | strong inhibition | strongly inhibited | strongly inhibited | marginal effect | 9.3 µM | 20 µM
